Target: T1, sGC α1/β1 heterodimer stably expressed in CHO-K1 cell line (CHO-K1/sGC) (Homo sapiens, UniProt Q02108+Q02153)
T1 construct: expressed in transfected cells
T1 sequence (Q02108 1-690): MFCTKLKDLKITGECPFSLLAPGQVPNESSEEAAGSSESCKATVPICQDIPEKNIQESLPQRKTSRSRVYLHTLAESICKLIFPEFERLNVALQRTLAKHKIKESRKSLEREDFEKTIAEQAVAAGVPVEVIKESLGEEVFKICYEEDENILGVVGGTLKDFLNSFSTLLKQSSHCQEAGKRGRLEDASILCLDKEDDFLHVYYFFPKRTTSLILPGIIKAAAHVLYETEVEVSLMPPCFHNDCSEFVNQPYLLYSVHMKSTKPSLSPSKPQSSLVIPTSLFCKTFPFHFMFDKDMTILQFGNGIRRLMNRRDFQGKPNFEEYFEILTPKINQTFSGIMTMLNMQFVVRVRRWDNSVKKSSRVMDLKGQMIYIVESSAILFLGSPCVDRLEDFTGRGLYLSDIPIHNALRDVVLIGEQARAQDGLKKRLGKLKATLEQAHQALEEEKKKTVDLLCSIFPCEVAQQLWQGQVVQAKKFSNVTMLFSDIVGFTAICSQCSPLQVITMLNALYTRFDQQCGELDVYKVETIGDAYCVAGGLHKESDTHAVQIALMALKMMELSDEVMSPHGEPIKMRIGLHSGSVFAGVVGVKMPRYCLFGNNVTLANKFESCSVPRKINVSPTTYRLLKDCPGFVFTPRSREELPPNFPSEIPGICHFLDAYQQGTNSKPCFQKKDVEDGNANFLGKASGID
T1 sequence (Q02153 1-619): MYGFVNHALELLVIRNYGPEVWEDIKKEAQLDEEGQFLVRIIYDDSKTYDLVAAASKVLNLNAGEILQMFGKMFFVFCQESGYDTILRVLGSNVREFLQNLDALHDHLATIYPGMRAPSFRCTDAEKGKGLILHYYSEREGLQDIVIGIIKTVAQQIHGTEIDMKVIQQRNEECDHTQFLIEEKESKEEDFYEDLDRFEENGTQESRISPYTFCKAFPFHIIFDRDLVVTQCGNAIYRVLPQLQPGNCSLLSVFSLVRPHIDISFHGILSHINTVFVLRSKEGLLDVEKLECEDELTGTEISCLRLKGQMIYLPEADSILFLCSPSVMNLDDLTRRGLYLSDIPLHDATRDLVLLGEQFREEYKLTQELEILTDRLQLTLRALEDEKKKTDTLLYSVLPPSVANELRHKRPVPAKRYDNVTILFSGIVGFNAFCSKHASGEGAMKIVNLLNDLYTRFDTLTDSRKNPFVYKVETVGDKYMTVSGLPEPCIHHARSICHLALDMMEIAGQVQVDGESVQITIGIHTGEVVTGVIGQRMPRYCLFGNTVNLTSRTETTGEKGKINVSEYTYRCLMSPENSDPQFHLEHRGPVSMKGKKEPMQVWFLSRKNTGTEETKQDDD
Assay: Cell-based sGC Functional Assay (CASA Assay), cGMP generation
Conditions: CHO-K1/sGC cells, 1 hr at 37° C., cGMP by HTRF, presence or absence of 1 μM DETA-NO not given; for EC50: 4P fit, read-out: IP (nM) (inflection point)
How it was run: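 CHO-K1 cells stably expressing human sGC α1/β1 (4×10^5/mL, 0.5 mM IBMX) were treated with compounds (2.5% DMSO final) ± 1 μM DETA-NO for 1 hr at 37° C. Intracellular cGMP measured by HTRF. Activity expressed as % of Compound A maximal cGMP; IP and maximum fold induction from 4P fit.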

SMILES	EC50 [nM]	Emax (read-out: % Act. (percent activation relative to maximum cGMP production of Compound A = 100%)) [%]
Cc1nc2c(CCC(F)(F)C(F)(F)F)nc(-c3nc(O)c4c(n3)NC(=O)[C@@]4(C)c3ccc(F)cc3)cn2n1 [Example 133B, (S)-5-(4-fluorophenyl)-4-hydroxy-5-methyl-2-(2-methyl-8-(3,3,4,4,4-pentafluorobutyl)-[1,2,4]triazolo[1,5-a]pyrazin-6-yl)-5H-pyrrolo[2,3-d]pyrimidin-6(7H)-one]	856	
CC1(c2ccc(Cl)cn2)C(=O)Nc2nc(-c3cn4ncnc4c(CCCC(F)(F)F)n3)nc(O)c21 (stereo not shown) [Example 134A, 5-(5-chloropyridin-2-yl)-4-hydroxy-5-methyl-2-(8-(4,4,4-trifluorobutyl)-[1,2,4]triazolo[1,5-a]pyrazin-6-yl)-5H-pyrrolo[2,3-d]pyrimidin-6(7H)-one]	857	
C[C@@]1(c2ccc(F)cc2)C(=O)Nc2nc(-c3cn4ncnc4c(CCCC(F)(F)F)n3)nc(O)c21 [Example 135A]	183	
CC1(c2ccc(F)cn2)C(=O)Nc2nc(-c3cn4ncnc4c(CCCC(F)(F)F)n3)nc(O)c21 (stereo not shown) [Example 136B, 5-(5-fluoropyridin-2-yl)-4-hydroxy-5-methyl-2-(8-(4,4,4-trifluorobutyl)-[1,2,4]triazolo[1,5-a]pyrazin-6-yl)-5H-pyrrolo[2,3-d]pyrimidin-6(7H)-one]	514	
CC1(c2ccc(C(F)(F)F)cc2)C(=O)Nc2nc(-c3cn4ncnc4c(CCCC(F)(F)F)n3)nc(O)c21 (stereo not shown) [Example 137B, 4-hydroxy-5-methyl-2-(8-(4,4,4-trifluorobutyl)-[1,2,4]triazolo[1,5-a]pyrazin-6-yl)-5-(4-(trifluoromethyl)phenyl)-5H-pyrrolo[2,3-d]pyrimidin-6(7H)-one]	597	
CC1(c2ccc(Cl)c(F)c2)C(=O)Nc2nc(-c3cn4ncnc4c(CCCC(F)(F)F)n3)nc(O)c21 (stereo not shown) [Example 138B, 5-(4-chloro-3-fluorophenyl)-4-hydroxy-5-methyl-2-(8-(4,4,4-trifluorobutyl)-[1,2,4]triazolo[1,5-a]pyrazin-6-yl)-5H-pyrrolo[2,3-d]pyrimidin-6(7H)-one]	344	
O=C1Nc2nc(-c3cn4ncnc4c(CCCC(F)(F)F)n3)nc(O)c2C1(c1ccc(F)cc1)C1CC1 (stereo not shown) [Example 139B, 5-cyclopropyl-5-(4-fluorophenyl)-4-hydroxy-2-(8-(4,4,4-trifluorobutyl)-[1,2,4]triazolo[1,5-a]pyrazin-6-yl)-5H-pyrrolo[2,3-d]pyrimidin-6(7H)-one]	673	
O=C1Nc2nc(-c3cn4ncnc4c(CCCC(F)(F)F)n3)nc(O)c2C1(c1ccc(Cl)cc1)C1CC1 (stereo not shown) [Example 140B, 5-(4-chlorophenyl)-5-cyclopropyl-4-hydroxy-2-(8-(4,4,4-trifluorobutyl)-[1,2,4]triazolo[1,5-a]pyrazin-6-yl)-5H-pyrrolo[2,3-d]pyrimidin-6(7H)-one]	277	
O=C1Nc2nc(-c3cn4ncnc4c(CCCC(F)(F)F)n3)nc(O)c2C1(c1ccc(F)c(F)c1)C1CC1 (stereo not shown) [Example 141A, 5-cyclopropyl-5-(3,4-difluorophenyl)-4-hydroxy-2-(8-(4,4,4-trifluorobutyl)-[1,2,4]triazolo[1,5-a]pyrazin-6-yl)-5H-pyrrolo[2,3-d]pyrimidin-6(7H)-one]	183	
CC1(c2ccc(Cl)cc2)C(=O)Nc2nc(-c3cn4ncnc4c(CCCC(F)(F)F)n3)nc(O)c21 (stereo not shown) [Example 142A, 5-(4-chlorophenyl)-4-hydroxy-5-methyl-2-(8-(4,4,4-trifluorobutyl)-[1,2,4]triazolo[1,5-a]pyrazin-6-yl)-5H-pyrrolo[2,3-d]pyrimidin-6(7H)-one]	207	
CC1(c2ccccc2)C(=O)Nc2nc(-c3cn4ncnc4c(CCCC(F)(F)F)n3)nc(O)c21 (stereo not shown) [Example 143B, 4-hydroxy-5-methyl-5-phenyl-2-(8-(4,4,4-trifluorobutyl)-[1,2,4]triazolo[1,5-a]pyrazin-6-yl)-5H-pyrrolo[2,3-d]pyrimidin-6(7H)-one]	301	
O=C1Nc2nc(-c3cn4ncnc4c(CCCC(F)(F)F)n3)nc(O)c2C1(c1ccc(C(F)(F)F)cc1)C1CC1 (stereo not shown) [Example 144A, 5-cyclopropyl-4-hydroxy-2-(8-(4,4,4-trifluorobutyl)-[1,2,4]triazolo[1,5-a]pyrazin-6-yl)-5-(4-(trifluoromethyl)phenyl)-5H-pyrrolo[2,3-d]pyrimidin-6(7H)-one]	1300	
CC1(c2ccccn2)C(=O)Nc2nc(-c3cn4ncnc4c(CCCC(F)(F)F)n3)nc(O)c21 (stereo not shown) [Example 145B, 4-hydroxy-5-methyl-5-(pyridin-2-yl)-2-(8-(4,4,4-trifluorobutyl)-[1,2,4]triazolo[1,5-a]pyrazin-6-yl)-5H-pyrrolo[2,3-d]pyrimidin-6(7H)-one]	1220	
CC1(c2ccc(F)c(F)c2)C(=O)Nc2nc(-c3cn4ncnc4c(CCCC(F)(F)F)n3)nc(O)c21 (stereo not shown) [Example 146B, 5-(3,4-difluorophenyl)-4-hydroxy-5-methyl-2-(8-(4,4,4-trifluorobutyl)-[1,2,4]triazolo[1,5-a]pyrazin-6-yl)-5H-pyrrolo[2,3-d]pyrimidin-6(7H)-one]	45.5	
CC1(c2ccc(F)c(Cl)c2)C(=O)Nc2nc(-c3cn4ncnc4c(CCCC(F)(F)F)n3)nc(O)c21 (stereo not shown) [Example 147B, 5-(3-chloro-4-fluorophenyl)-4-hydroxy-5-methyl-2-(8-(4,4,4-trifluorobutyl)-[1,2,4]triazolo[1,5-a]pyrazin-6-yl)-5,7-dihydro-6H-pyrrolo[2,3-d]pyrimidin-6-one]	214	
COc1ccc(C2(C)C(=O)Nc3nc(-c4cn5ncnc5c(CCCC(F)(F)F)n4)nc(O)c32)nc1 (stereo not shown) [Example 148A, 4-hydroxy-5-(5-methoxypyridin-2-yl)-5-methyl-2-(8-(4,4,4-trifluorobutyl)-[1,2,4]triazolo[1,5-a]pyrazin-6-yl)-5H-pyrrolo[2,3-d]pyrimidin-6(7H)-one]	1090	
Cc1ccc(C2(C)C(=O)Nc3nc(-c4cn5ncnc5c(CCCC(F)(F)F)n4)nc(O)c32)nc1 (stereo not shown) [Example 149B, 4-hydroxy-5-methyl-5-(5-methylpyridin-2-yl)-2-(8-(4,4,4-trifluorobutyl)-[1,2,4]triazolo[1,5-a]pyrazin-6-yl)-5H-pyrrolo[2,3-d]pyrimidin-6(7H)-one]	990	
O=C1Nc2nc(-c3cn4ncnc4c(CCCC(F)(F)F)n3)nc(O)c2C1(c1ccc(F)cn1)C1CC1 (stereo not shown) [Example 150A, 5-cyclopropyl-5-(5-fluoropyridin-2-yl)-4-hydroxy-2-(8-(4,4,4-trifluorobutyl)-[1,2,4]triazolo[1,5-a]pyrazin-6-yl)-5,7-dihydro-6H-pyrrolo[2,3-d]pyrimidin-6-one]	1220	
C[C@@]1(c2ccc(F)cc2)C(=O)Nc2nc(-c3cn4ncnc4c(CCC(F)(F)F)n3)nc(O)c21 [Example 151A, (S)-5-(4-fluorophenyl)-4-hydroxy-5-methyl-2-(8-(3,3,3-trifluoropropyl)-[1,2,4]triazolo[1,5-a]pyrazin-6-yl)-5,7-dihydro-6H-pyrrolo[2,3-d]pyrimidin-6-one]	1490	
CC1(c2ccc(Cl)cc2)C(=O)Nc2nc(-c3cn4ncnc4c(CCC(F)(F)F)n3)nc(O)c21 (stereo not shown) [Example 152A, 5-(4-chlorophenyl)-4-hydroxy-5-methyl-2-(8-(3,3,3-trifluoropropyl)-[1,2,4]triazolo[1,5-a]pyrazin-6-yl)-5H-pyrrolo[2,3-d]pyrimidin-6(7H)-one]	133	70
CC1(c2ccc(Cl)c(F)c2)C(=O)Nc2nc(-c3cn4ncnc4c(CCC(F)(F)F)n3)nc(O)c21 (stereo not shown) [Example 153B, 5-(4-chloro-3-fluorophenyl)-4-hydroxy-5-methyl-2-(8-(3,3,3-trifluoropropyl)-[1,2,4]triazolo[1,5-a]pyrazin-6-yl)-5H-pyrrolo[2,3-d]pyrimidin-6(7H)-one]	310	

Source: patent publication US9822130B2, “Triazolo-pyrazinyl derivatives useful as soluble guanylate cyclase activators” (Merck Sharp & Dohme Corp., priority 2014, dated 2017)
